Assay results as given in patent publication US8222260B2, “Substituted 6-anilinopurine derivatives as inhibitors of cytokinin oxidase/dehydrogenase and preparations containing these derivatives” (Univerzita Palackego V Olomouci, priority 2007, dated 2012).

Assays:
AHK3 = molecular target: T1, AHK3 (Arabidopsis thaliana, UniProt Q9C5U1); assay: Activation of cytokinin receptors (E. coli KMI001 beta-galactosidase reporter); format: cell-based; conditions: 28 h incubation; n.a. means no activation
T1 sequence (Q9C5U1 1-1036): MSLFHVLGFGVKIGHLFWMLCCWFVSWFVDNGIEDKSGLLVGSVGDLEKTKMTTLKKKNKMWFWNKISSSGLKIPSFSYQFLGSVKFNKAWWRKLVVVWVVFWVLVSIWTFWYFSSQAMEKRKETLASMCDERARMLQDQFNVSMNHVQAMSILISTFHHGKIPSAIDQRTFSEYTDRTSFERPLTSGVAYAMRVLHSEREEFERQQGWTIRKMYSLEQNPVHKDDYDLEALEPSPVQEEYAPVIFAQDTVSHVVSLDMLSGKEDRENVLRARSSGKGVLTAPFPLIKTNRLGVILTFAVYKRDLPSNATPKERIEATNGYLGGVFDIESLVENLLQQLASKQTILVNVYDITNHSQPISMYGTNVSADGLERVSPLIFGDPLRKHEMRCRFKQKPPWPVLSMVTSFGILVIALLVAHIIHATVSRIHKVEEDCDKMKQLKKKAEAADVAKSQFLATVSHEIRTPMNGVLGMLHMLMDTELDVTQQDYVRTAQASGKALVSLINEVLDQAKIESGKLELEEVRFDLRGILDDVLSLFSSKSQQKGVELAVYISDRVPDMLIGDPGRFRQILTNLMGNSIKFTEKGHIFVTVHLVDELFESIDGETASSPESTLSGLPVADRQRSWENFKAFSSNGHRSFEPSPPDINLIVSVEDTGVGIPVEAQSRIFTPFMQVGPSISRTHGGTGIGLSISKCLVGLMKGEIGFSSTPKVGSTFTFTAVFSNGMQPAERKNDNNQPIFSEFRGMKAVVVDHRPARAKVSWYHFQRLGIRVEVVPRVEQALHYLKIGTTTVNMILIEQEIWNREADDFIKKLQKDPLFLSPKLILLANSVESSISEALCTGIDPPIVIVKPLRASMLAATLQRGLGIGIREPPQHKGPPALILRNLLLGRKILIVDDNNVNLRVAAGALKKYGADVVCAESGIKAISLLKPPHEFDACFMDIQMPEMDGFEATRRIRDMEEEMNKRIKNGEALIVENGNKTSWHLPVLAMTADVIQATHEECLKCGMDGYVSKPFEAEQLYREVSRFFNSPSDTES
Description: (§1) Escherichia coli strains KMI001 harbouring the plasmid […]4 or […]3 were grown overnight at 25° C. in M9 media enriched with 0.1% casamino acids to OD600 1. The preculture was diluted 1:600 in 1 ml M9 medium containing 0.1% casamino acids and 1 μl stock solution of either the tested compound (10^-7 M-5×10^-5 M) or solvent control (DMSO, ethanol, methanol) were added. The cultures were further grown at 25° C. in microtiter plate, 200 μl per well. […] The cultures were centrifuged and 50 μl aliquots of the supernatant were transferred to microtiter plate containing 2 μl 150 mM 4-methyl umbelliferyl galactoside which was subsequently incubated for 1 h at 37° C. The reaction was stopped by adding 100 μl 0.2 M Na2CO3. […] The EC50 value, the compound concentration activating the receptor to 50%, was calculated from the obtained dose response curves. The values shown in Table 10 are means of three replicates and the entire test was repeated at least twice.

CRE1/AHK4 = CRE1/AHK4 (Arabidopsis thaliana, UniProt Q9C5U0); assay: as above; format: cell-based; conditions: 17 h incubation; n.a. means no activation
Sequence of CRE1/AHK4 (Q9C5U0 whole entry): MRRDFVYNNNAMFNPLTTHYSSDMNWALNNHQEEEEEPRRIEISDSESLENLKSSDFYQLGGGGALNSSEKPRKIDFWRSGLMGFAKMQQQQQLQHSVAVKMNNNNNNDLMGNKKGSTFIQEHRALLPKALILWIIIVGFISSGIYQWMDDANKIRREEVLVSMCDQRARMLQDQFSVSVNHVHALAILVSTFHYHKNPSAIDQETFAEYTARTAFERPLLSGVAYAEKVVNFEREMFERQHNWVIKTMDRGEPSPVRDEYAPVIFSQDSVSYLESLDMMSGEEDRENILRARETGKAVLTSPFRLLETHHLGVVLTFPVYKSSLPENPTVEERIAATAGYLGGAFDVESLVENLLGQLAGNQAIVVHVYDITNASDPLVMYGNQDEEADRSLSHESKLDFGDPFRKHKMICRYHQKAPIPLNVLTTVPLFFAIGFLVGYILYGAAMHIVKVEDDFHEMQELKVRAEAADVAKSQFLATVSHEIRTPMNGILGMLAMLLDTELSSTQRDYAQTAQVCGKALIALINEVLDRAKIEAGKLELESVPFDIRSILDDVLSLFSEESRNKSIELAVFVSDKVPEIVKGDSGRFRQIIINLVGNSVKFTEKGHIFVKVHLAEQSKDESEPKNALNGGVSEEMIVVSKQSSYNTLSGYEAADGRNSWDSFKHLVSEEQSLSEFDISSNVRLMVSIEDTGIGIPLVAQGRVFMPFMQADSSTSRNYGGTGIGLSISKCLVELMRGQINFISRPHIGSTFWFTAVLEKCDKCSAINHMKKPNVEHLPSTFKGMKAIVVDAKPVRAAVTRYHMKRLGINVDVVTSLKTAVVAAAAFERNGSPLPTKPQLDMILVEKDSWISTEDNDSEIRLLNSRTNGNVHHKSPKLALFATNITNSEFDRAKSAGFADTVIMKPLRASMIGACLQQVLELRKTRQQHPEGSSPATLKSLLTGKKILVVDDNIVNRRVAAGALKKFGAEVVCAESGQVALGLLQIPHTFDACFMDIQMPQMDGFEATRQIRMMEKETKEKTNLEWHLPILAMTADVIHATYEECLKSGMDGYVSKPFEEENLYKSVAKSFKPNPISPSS
Description: as §1

[1] = test system: cytokinin-dependent tobacco callus Nicotiana tabacum L. cv. Wisconsin 38; assay: Tobacco callus biotest (plant cell division); format: cell-based; conditions: at the concentration with highest activity, relative to 10^−5 M kinetin
Description: The stimulatory effect of the newly prepared derivatives was tested in the calus biotest using cytokinin-dependent tobacco callus. Cytokinin-dependent tobacco callus Nicotiana tabacum L. cv. Wisconsin 38 was maintained at 25° C. in darkness on modified Murashige-Skoog medium, containing per 1 liter: 4 μmol of nicotinic acid, 2.4 μmol of pyridoxine hydrochloride, 1.2 μmol of thiamine, 26.6 μmol of glycine, 1.37 μmol of glutamine, 1.8 μmol of myo-inositol, 30 g of sucrose, 8 g of agar, 5.37 μmol of NAA and 0.5 μmol of 6-benzylaminopurine. Subcultivation was carried out every three weeks. Fourteen days before the bioassay, the callus tissue was transferred to the media without 6-benzylaminopurine. The biological activity was determined from the increase of the fresh callus weight after four weeks of cultivation. Five replicates were prepared for each concentration of the compound tested and the entire test was repeated twice. […] The compounds to be tested were dissolved in dimethylsulfoxide (DMSO) and the solution brought up to 10^−3 M with distilled water.
From the obtained data, the concentration with the highest activity was selected for each compound tested. Relative activity of the compound at this concentration was calculated (Table 11). The activity obtained for 10^−5 M of the control substance kinetin (K) was postulated as 100%.

[2] = test system: Amaranthus caudatus cotyledon/hypocotyl explants; assay: Amaranthus bioassay (betacyanin content); format: cell-based, Amaranthus caudatus var. atropurpurea; conditions: at the concentration with highest activity, relative to 10^−5 M kinetin
Description: The standard Amaranthus bioassay was performed with the following modifications. The seeds of Amaranthus caudatus var. atropurpurea were surface-sterilised in 10% (w/v) N-chlorobenzenesulfonamide for 10 min and washed 5 times with deionized water. They were placed in 15 cm Petri dishes containing paper tissues saturated with deionized water. After 72 h of cultivation at 25° C. in darkness, the roots of the seedlings were cut off. The explants, consisting of two cotyledons and hypocotyls, were placed in 5 cm Petri dishes onto two layers of filtration paper soaked with 1 ml of the incubation medium containing 10 μmol of Na2HPO4—KH2PO4, pH 6.8, 5 μmol of tyrosine and the compound to be tested. There were 20 explants per dish. The procedure was carried out under green safe light in a darkroom. After 48 h of incubation at 25° C. in darkness, betacyanin was extracted by freezing the explants in 4 ml 3.33 μM acetic acid. The concentration of betacyanin was determined from the absorbances at 537 nm and 620 nm as follows: ΔA=A537nm−A620nm. The values ΔA were plotted against the concentration tested, are means of five replicates and the entire test was repeated at least twice. […] The compounds to be tested were dissolved in dimethylsulfoxide (DMSO) and the solution brought up to 10^−3M with distilled water.
From the obtained data, the concentration with the highest activity was selected for each compound tested. Relative activity of the compound at this concentration was calculated (Tab. 12). The activity obtained for 10^−5 M kinetin (K) was postulated as 100%.

recombinant AtCKX2 = molecular target: T2, recombinant AtCKX2 (Arabidopsis thaliana, UniProt Q9FUJ3); assay: Inhibition of cytokinin oxidase/dehydrogenase activity (PMS/MTT microtitre plate assay); format: biochemical; conditions: 30 μM iP as substrate, pH 7.4, 37° C.; means of three replicates; read-out: IC50, inhibition of recombinant AtCKX2
T2 sequence (Q9FUJ3 23-501): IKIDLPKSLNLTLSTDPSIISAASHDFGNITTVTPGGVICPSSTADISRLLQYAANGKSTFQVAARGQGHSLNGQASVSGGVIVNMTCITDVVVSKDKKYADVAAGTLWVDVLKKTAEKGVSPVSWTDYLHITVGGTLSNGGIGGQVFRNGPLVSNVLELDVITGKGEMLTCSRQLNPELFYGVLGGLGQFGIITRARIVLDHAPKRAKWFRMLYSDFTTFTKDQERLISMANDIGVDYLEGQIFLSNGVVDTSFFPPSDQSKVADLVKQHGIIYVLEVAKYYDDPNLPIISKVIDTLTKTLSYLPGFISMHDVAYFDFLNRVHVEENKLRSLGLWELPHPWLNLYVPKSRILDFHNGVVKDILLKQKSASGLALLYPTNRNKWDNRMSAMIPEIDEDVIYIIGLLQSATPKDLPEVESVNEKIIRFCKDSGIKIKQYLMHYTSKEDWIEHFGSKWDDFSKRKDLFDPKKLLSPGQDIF
Description: IC50 determinations were done using the assay in microtitre plate. Each well contained 100 μL of PMS/MTT [phenazine methosulfate/3-(4,5-dimethylthiazol-2-yl)-2,5-diphenyltetrazolium bromide] reaction mixture (final concentrations: 0.1 M KH2PO4, pH 7.4, 1 mM MTT, 0.2 mM PMS) containing the tested compound (3×10^−7 M-3×10^−4 M) and 30 μM N^6-isopentenyladenine (iP) as a substrate. 100 μL of cell-free growth medium of S. cerevisiae strain 23344c ura^− harboring the plasmid pYES2-AtCKX2 was directly used as a source of AtCKX2. Plates were incubated in the dark for […] at 37° C. and the enzymatic reaction was stopped by 25 μL of 35% acetic acid. The absorbance at 578 nm was measured using spectrophotometer Tecan. Absorbance of the sample without iP was subtracted.
The IC50 value, the compound concentration that inhibits the enzyme activity to 50%, was calculated from the obtained dose response curves. The values shown in Table 9 are means of three replicates and the entire test was repeated at least twice.

| SMILES | EC50 (AHK3) [µM] | EC50 (CRE1/AHK4) [µM] | IC50 (recombinant AtCKX2) [µM] | Activity (%) [10^−5 mol · l^−1 K = 100%] [1] [%] | Activity (%) [10^−5 mol · l^−1 K = 100%] [2] [%] |
| --- | --- | --- | --- | --- | --- |
| Cc1ccc(Nc2nc(Cl)nc3[nH]cnc23)cc1C [Compound 30] | > 50 | 33.3 |  |  |  |
| Oc1ccc(Nc2nc(F)nc3[nH]cnc23)cc1 [Compound 49] | > 50 | 37.1 |  | 106 |  |
| Nc1nc(Nc2ccccc2O)c2[nH]cnc2n1 [Compound 71] | > 50 | > 50 |  |  |  |
| COc1cccc(Nc2nc(S)nc3[nH]cnc23)c1 [Compound 88] | 31.7 |  | 28.3 | 103.4 | 113.4 |
| CSc1nc(Nc2cccc(F)c2)c2nc[nH]c2n1 [Compound 98] | 32 | 49 |  | 130.3 | 142.5 |
| Cc1nc(Nc2cccc(F)c2)c2nc[nH]c2n1 [Compound 113] |  |  | 21.8 | 125.3 | 120.2 |
| COc1cccc(Nc2nc(C)nc3nc[nH]c23)c1 [Compound 118, 2-Methyl-6-(3-methoxyanilino)purine] | > 50 |  | 9.4 | 105.7 | 144.2 |

More lines, main results first:

| EC50 (AHK3) [µM] | EC50 (CRE1/AHK4) [µM] | IC50 (recombinant AtCKX2) [µM] | SMILES | Activity (%) [10^−5 mol · l^−1 K = 100%] [1] [%] | Activity (%) [10^−5 mol · l^−1 K = 100%] [2] [%] |
| --- | --- | --- | --- | --- | --- |
| 45.8 | > 50 |  | Oc1ccccc1Nc1nc(F)nc2[nH]cnc12 [Compound 47] |  |  |
| 17.4 | > 50 |  | COc1ccccc1Nc1nc(F)nc2[nH]cnc12 [Compound 50] | 117.6 | 105.2 |
| 20.4 |  | 24.7 | COc1cccc(Nc2nc(N)nc3nc[nH]c23)c1 [Compound 75, 2-Amino-6-(3-methoxyanilino)purine] |  | 123.6 |
| 42 |  | 28.4 | Sc1nc(Nc2cccc(Cl)c2)c2nc[nH]c2n1 [Compound 80] | 126 | 106 |
| 29 | 41 |  | CSc1nc(Nc2cccc(Cl)c2)c2nc[nH]c2n1 [Compound 96] | 121.2 | 145.8 |
| > 50 |  | 15.7 | Cc1nc(Nc2cccc(Cl)c2)c2nc[nH]c2n1 [Compound 111] | 128.3 |  |
